Results on four compounds are retold here after publication PMC10825133, “Repurposing proteasome inhibitors for improved treatment of triple-negative breast cancer” (Cell Death Discovery, 2024).

One may read the inhibition as the share of the control response that was lost under treatment.

Experiment [1] deals with eight TNBC cell lines and two controls (MCF-10A and MCF-7). Put plainly: Monotherapy drug screen, all investigated cell lines. To be noted: for drug potency classification, below the threshold: GR50 and AUC both below the threshold; for drug potency classification: metrics GR50 < 1.0 µM and AUC < 0.80. The experiment is classed as cell-based, human. The method, then:
(§1) Eighteen pharmaceutical compounds were purchased from Selleckchem (Supplementary Table 2). Stock solutions were prepared using dimethyl sulfoxide (DMSO; Merck), physiological saline (sodium chloride 0.9%) or Milli-Q water, and stored at −80 °C. […] Matched concentration solvent vehicle controls were used for each drug concentration. The drug screens were performed in triplicate and repeated three (monotherapy) or two (combination therapy) times (Fig. 7).
(§2) The optimal seeding density per 96-well was determined for each cell line as previously described. The cells were seeded at a density of 4.0 × 10^3 to 7.5 × 10^3 (cell type dependent) in 96-well clear, flat-bottom microplates (Corning Life Sciences, Sigma-Aldrich) in 100 µl complete culture medium (Supplementary Table 1) and cultured for 24 h. Cell viability was determined using the resazurin assay in untreated cells at the time of plating (t = 0) and treated cells after 24 h drug treatment (Fig. 7). Percentage cell viability was calculated as 100% × (absorbance of treated cells – absorbance of background controls) / (absorbance of matched solvent vehicle controls – absorbance of background controls). The area under the curve (AUC), half-maximal inhibitory concentration (IC50), drug potency (GR50), and drug efficacy (GRmax) were determined for each compound using the GRmetrics (version 1.20.0) package in R. The monotherapy data were evaluated with the IDACombo (version 1.0.2) package in R to predict potential drug combinations (Table 1). SynergyFinder (version 3.2.10) package in R was used to identify synergistic drug combinations.
(§3) Eighteen pharmaceutical compounds were purchased from Selleckchem. […] The solubility of the compound was enhanced by pre-heating the solvent (lukewarm), if necessary. […] The stock solutions were stored at -80°C. […] Matched concentration solvent vehicle controls were used for each drug concentration. The drug screens were performed in triplicate and repeated three times for the monotherapies and twice for the combination treatments. The drug(s) and corresponding controls were plated in 96-well PCR plates (VWR) and stored at -20°C (Fig. 6). The drug plates were thawed, centrifuged (3000 rpm for 30s), and acclimatized to RT before the drugs were added to the cells. New drug plates were prepared for each drug screen.
(§4) The cells were seeded at a density of 4.0x10^3 to 7.5x10^3 (cell type-dependent) in 96-well clear, flat-bottom microplates (Corning Life Sciences, Sigma-Aldrich) in 100 µl culture medium supplemented with 10% FBS and cultured for 24h. Cell viability was determined using the resazurin assay after 24h drug treatment (Fig. 6). Percentage cell viability was calculated as 100% × (absorbance of treated cells – absorbance of background controls) / (absorbance of matched solvent vehicle controls – absorbance of background controls). Normalized growth rate inhibition (GR) was assessed using the absorbance of untreated cells after the time of plating (t = 0). […] For combination treatment, the monotherapy data were evaluated with the IDACombo (version 1.0.2)[20] package in R to predict potential drug combinations (Table 1). SynergyFinder (version 3.2.10)[21] package in R was used to identify synergistic drug combinations.

Experiment [2] concerns the target T1, β5 catalytic site of the 20 S proteasome (Homo sapiens, UniProt P28074).
T1 construct: endogenous in cells; host or cells: MCF-7
Put plainly: Proteasome activity of the β5 catalytic site in MCF-7 cells (Suc-Leu-Leu-Val-Tyr-AMC substrate). It is filed as cell-based. To be noted: MCF7, MCF-7 cells treated 6 h; for inhibition at 1 µM: 1000 nM; for inhibition at 10 µM: 10000 nM, read-out: inhibition of β5 activity. The method, then:
Proteasome activity of the β5 catalytic site was determined for the PIs using a Suc-Leu-Leu-Val-Tyr-AMC fluorescent proteasome substrate (Enzo Life Sciences, Cat. BML-P802) at a final concentration of 20 µM. MCF-7 cells were seeded at 7.5 × 10^3 cells/well in black 96-well flat-bottom microplates (Nuclon™ Delta Surface, ThermoFisher Scientific) with 100 µl culture medium supplemented with 10% FBS. After 24 h, the cells were treated for 6 h with the 11 PIs at 1, 10, 100, and 1000 nM and matched untreated controls.

The subject of experiment [3] is control cell lines (MCF-10A and MCF-7). Briefly: Monotherapy drug screen, mean across the controls. It is filed as cell-based, human. To be noted: for IC50: Homo sapiens, 24 h drug treatment, read-out: GR50 (mean ± SD). The method, then: as §1, §2, §3, §4
In experiment [4] the test system is CAL-148 cells. Put plainly: Combination therapy, resazurin viability, SynergyFinder. To be noted: Homo sapiens. The experiment is classed as cell-based, human. The method, then: as §1, §2, §3, §4
On the technique in general: The colour change of resazurin is a common sign of viable cells or microbes.

Experiment [5] concerns eight TNBC cell lines (BT-549, CAL-148, HCC1806, HCC38, HCC70, MDA-MB-436, MDA-MB-453, MDA-MB-468). Briefly: Monotherapy drug screen, mean across the TNBC cell lines. To be noted: 24 h; for IC50: Homo sapiens, read-out: GR50 (mean ± SD); for area under the dose response curve (AUC), mean ± SD: TNBC cell lines. The method, then:
as §1, §2, §3, §4

For experiment [6], the system named is CAL-148 cells. Put plainly: Resazurin-based cell viability assay, monotherapy drug screen. Details: species or system human; AUC: unit not given beside the values. To be noted: CAL-148; for AUC: area under the dose response curve, 24 h; for GRmax: drug efficacy at highest tested dose (<0 cytotoxic, 0 cytostatic, >0 partial growth inhibition); for IC50: Homo sapiens, growth rate inhibition concentration at GR(c) = 0.5, 24 h, read-out: GR50 (the source's name). The method, then: as §1, §2, §3
Cell viability was measured daily (day 0 [plating day] to day 4) using 0.2 mg/ml resazurin solution prepared from resazurin sodium salt (Fisher Scientific) dissolved in sterile 1xPBS (ThermoFisher Scientific). Before use, the resazurin solution was brought to RT before 10 µl (10% of cell medium volume) was added to each 96-well and incubated for 4h at 37°C. […] The slope of the curve was used to determine the optimal seeding density, i.e., the highest seeding density with linear growth between days 1 and 3.
as §4

On to `CC(C)C[C@H](NC(=O)[C@H](Cc1ccccc1)NC(=O)c1cnccn1)B(O)O` [Bortezomib], for which, in experiment [1], the “drug potency classification, below the threshold” value is “highly potent drugs” and the drug potency classification entry is given as “potent drugs”. In addition, in experiment [2], the inhibition at 1 µM is 95% and the inhibition at 10 µM worked out at 100%. Also, the “area under the dose response curve (AUC), mean ± SD” value (from here on “area … mean ± SD”) in experiment [3] (24 h) is 0.69 ± 0.10. The IC50 in experiment [3] came out at 21 ± 9.7 nM. The inhibition at 0.01 µM in experiment [4] (bortezomib 10 nM alone) worked out at 12.5%. Moreover, the inhibition at 0.078 µM in experiment [4] (bortezomib 78 nM alone) is 62.8%. Besides, in experiment [4] (bortezomib 625 nM alone), the inhibition at 0.625 µM came to 55.1%. Further, the inhibition at 5 µM in experiment [4] (bortezomib 5000 nM alone) was 55.6%. Moreover, in experiment [5], the IC50 worked out at 100 ± 110 nM and the “area … mean ± SD” value is reported as 0.66 ± 0.10. For the same compound, in experiment [6], the AUC came out at 0.77, the GRmax is recorded as 0.17 and the IC50 came out at 120 nM.
As to `CC(C)C[C@H](NC(=O)[C@@H](NC(=O)c1cccc(-c2ccccc2)n1)[C@@H](C)O)B(O)O` [Delanzomib], in experiment [1], the “drug potency classification, below the threshold” value is reported as “highly potent drugs” and the drug potency classification entry was “potent drugs”. In experiment [2], the inhibition at 1 µM worked out at 55% and the inhibition at 10 µM is 100%. In addition, the IC50 in experiment [3] was found to be 24 ± 13 nM. Further, in experiment [5], the IC50 amounted to 79 ± 130 nM and the “area … mean ± SD” value stood at 0.69 ± 0.10. Also, in experiment [6], the AUC is listed as 0.77, the GRmax stood at 0.39 and the IC50 was 23 nM.
With `CC(C)C[C@H](NC(=O)CNC(=O)c1cc(Cl)ccc1Cl)B(O)O` [MLN 2238, MLN-2238], in experiment [1], the “drug potency classification, below the threshold” value is given as “highly potent drugs” and the drug potency classification result is listed as “potent drugs”. In addition, in experiment [2], the inhibition at 10 µM was 33%. Further, in experiment [5], the IC50 amounted to 680 ± 1000 nM and the “area … mean ± SD” value amounted to 0.76 ± 0.10. For the same compound, in experiment [6], the AUC is recorded as 0.83, the GRmax is 0.18 and the IC50 was 270 nM.
As to `CC(C)C[C@H](NC(=O)CNC(=O)c1cc(Cl)ccc1Cl)B1OC(=O)C(CC(=O)O)(CC(=O)O)O1` [MLN 9708, MLN-9708], in experiment [1], the drug potency classification entry is “potent drugs”. Also, in experiment [2], the inhibition at 10 µM is 51%. Moreover, in experiment [5], the “area … mean ± SD” value is given as 0.79 ± 0.10. Besides, in experiment [6], the AUC is listed as 0.88, the GRmax came out at 0.40 and the IC50 was determined as 500 nM.
